Measurements from patent US11773078B2, “Furin inhibitors” (Glaxosmithkline Intellectual Property Development Limited, priority 2018, dated 2023).
Structures can show the parent of a compound that is named as a salt.

Assays:
[1] = biological target: T1, Furin (108-574-Tev-Flag-His) enzyme (Homo sapiens, UniProt P09958); experiment: Furin enzyme assay; assay type: biochemical
T1 construct: Furin (108-574-Tev-Flag-His) enzyme was expressed and purified from CHO cells; TEV cleavage site (C); FLAG (C); His (C); made in house; host or cells: CHO cells
How it was run: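 Compounds ran as 11-point threefold dilutions (0.00017–10 μM final) against 40 pM furin, purified from CHO cells, for 2 h at room temperature. Buffer: 100 mM HEPES pH7.5 with 1 mM CaCl2 and 0.005% Triton X-100. Envision readout. Four-parameter curve gives pXC50.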

[2] = biological target: T2, furin (endogenous protease) in U20S cells (Homo sapiens, UniProt P09958); experiment: Furin cell-based assay (image-based, Golgi-targeted GFP with BMP10 furin/PCSK cleavage site); details: 24-hour incubation, read-out: furin golgi cell pXC50 (converted);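 also: Read-out is mean GFP fluorescence of Golgi puncta per cell by high-content imaging, retained when furin inhibited, over an eleven-point 0.00017–10 µM series, four-parameter fit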
T2 construct: the endogenous protease cleaves GFP; endogenous in cells; host or cells: U2OS cells transduced with a BacMam reporter
T2 sequence (P09958 108-794): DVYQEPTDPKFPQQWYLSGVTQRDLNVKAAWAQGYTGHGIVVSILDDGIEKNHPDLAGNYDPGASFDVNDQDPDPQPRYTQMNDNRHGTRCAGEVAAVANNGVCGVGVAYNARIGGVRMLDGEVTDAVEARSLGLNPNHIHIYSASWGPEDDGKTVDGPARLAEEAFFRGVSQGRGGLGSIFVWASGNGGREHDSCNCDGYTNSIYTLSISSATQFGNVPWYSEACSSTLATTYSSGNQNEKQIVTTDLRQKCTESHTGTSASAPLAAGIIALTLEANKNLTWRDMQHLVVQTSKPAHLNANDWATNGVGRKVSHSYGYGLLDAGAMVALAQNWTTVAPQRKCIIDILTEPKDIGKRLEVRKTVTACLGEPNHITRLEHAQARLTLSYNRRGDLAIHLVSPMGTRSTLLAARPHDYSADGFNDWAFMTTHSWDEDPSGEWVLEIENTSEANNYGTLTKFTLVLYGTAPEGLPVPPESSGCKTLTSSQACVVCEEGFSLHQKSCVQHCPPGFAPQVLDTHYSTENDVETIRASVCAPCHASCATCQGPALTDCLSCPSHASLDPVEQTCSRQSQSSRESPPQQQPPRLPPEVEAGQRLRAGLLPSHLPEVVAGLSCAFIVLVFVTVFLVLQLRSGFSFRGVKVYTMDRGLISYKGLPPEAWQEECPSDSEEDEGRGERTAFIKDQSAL

T1 sequence (P09958 108-574): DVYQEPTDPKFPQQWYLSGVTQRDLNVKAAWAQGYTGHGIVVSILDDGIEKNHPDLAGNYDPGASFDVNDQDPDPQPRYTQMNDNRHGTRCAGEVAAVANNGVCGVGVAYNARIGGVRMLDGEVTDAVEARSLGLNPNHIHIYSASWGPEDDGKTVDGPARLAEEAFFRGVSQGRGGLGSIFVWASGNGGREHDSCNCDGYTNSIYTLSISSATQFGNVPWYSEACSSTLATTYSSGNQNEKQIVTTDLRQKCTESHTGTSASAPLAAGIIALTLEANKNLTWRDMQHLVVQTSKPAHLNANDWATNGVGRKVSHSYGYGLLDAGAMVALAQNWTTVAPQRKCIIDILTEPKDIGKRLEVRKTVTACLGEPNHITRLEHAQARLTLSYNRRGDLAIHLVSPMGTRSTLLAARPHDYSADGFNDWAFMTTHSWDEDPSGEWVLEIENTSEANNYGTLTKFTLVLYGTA

Row | furin enzyme pIC50 [1] | EC50 [2] | Compound
1 | 8.9 | 0.001 µM | CC(=O)NCC1CCN(Cc2cc(Oc3cnc(N4CCN(CCB(O)O)CC4)nc3)nc(-c3cc(Cl)cc(Cl)c3)c2)CC1 [Example 319, (2-(4-(5-((4-((4-(Acetamidomethyl)piperidin-1-yl)methyl)-6-(3,5-dichlorophenyl)pyridin-2-yl)oxy)pyrimidin-2-yl)piperazin-1-yl)ethyl)boronic acid, 4 hydrochloride]
2 | 8.2 | 0.0126 µM | CN1CCN(c2ncc(Oc3cc(CN4CCC(CP(C)(C)=O)CC4)cc(-c4cc(Cl)cc(Cl)c4)n3)cn2)CC1 [Example 320, ((1-((2-(3,5-Dichlorophenyl)-6-((2-(4-methylpiperazin-1-yl)pyrimidin-5-yl)oxy)pyridin-4-yl)methyl)piperidin-4-yl)methyl)dimethylphosphine oxide, 4 hydrochloride]
3 | 8.9 | 0.00631 µM | CN1CCCN(c2ncc(Oc3cc(CN4CCC(CB(O)O)CC4)cc(-c4cc(Cl)cc(Cl)c4)n3)cn2)CC1 [Example 322, ((1-((2-(3,5-dichlorophenyl)-6-((2-(4-methyl-1,4-diazepan-1-yl)pyrimidin-5-yl)oxy)pyridin-4-yl)methyl)piperidin-4-yl)methyl)boronic acid]
4 | 8.7 | 0.0126 µM | CN1CCN(c2ncc(Oc3cc(CN4CCC(CCB(O)O)CC4)cc(-c4cc(Cl)cc(Cl)c4)n3)cn2)CC1 [Example 323, (2-(1-((2-(3,5-dichlorophenyl)-6-((2-(4-methylpiperazin-1-yl)pyrimidin-5-yl)oxy)pyridin-4-yl)methyl)piperidin-4-yl)ethyl)boronic acid]
5 | 8.3 | 0.0158 µM | CC(=O)NC(=O)OCC1CCN(Cc2cc(Oc3cnc(N4CCN(C)CC4)nc3)nc(-c3cc(Cl)cc(Cl)c3)c2)CC1 [Example 324]
6 | 8.3 | 0.00631 µM | COC(=O)NC(=O)NCC1CCN(Cc2cc(Oc3cnc(N4CCN(C)CC4)nc3)nc(-c3cc(Cl)cc(Cl)c3)c2)CC1 [Example 325]
7 | 8.7 | 0.0126 µM | CN1CCN(c2ncc(Oc3cc(CN4CCC(CNC(=O)NS(C)(=O)=O)CC4)cc(-c4cc(Cl)cc(Cl)c4)n3)cn2)CC1 [Example 326, N-(((1-((2-(3,5-dichlorophenyl)-6-((2-(4-methylpiperazin-1-yl)pyrimidin-5-yl)oxy)pyridin-4-yl)methyl)piperidin-4-yl)methyl)carbamoyl)methanesulfonamide]
8 | 8.6 | 0.00316 µM | CC(=O)NC(=O)NCC1CCN(Cc2cc(Oc3cnc(N4CCN(C)CC4)nc3)nc(-c3cc(Cl)cc(Cl)c3)c2)CC1 [Example 327]
9 | 8.3 | 0.0126 µM | CN1CCN(c2ncc(Oc3cc(CN4CCC(NC(=O)NS(C)(=O)=O)CC4)cc(-c4cc(Cl)cc(Cl)c4)n3)cn2)CC1 [Example 328, N-((1-((2-(3,5-dichlorophenyl)-6-((2-(4-methylpiperazin-1-yl)pyrimidin-5-yl)oxy)pyridin-4-yl)methyl)piperidin-4-yl)carbamoyl)methanesulfonamide]
10 | 8.2 | 0.0158 µM | CN1CCN(c2ncc(Oc3cc(CN4CCC(NC(N)=O)CC4)cc(-c4cc(Cl)cc(Cl)c4)n3)cn2)CC1 [Example 329, 1-(1-((2-(3,5-dichlorophenyl)-6-((2-(4-methylpiperazin-1-yl)pyrimidin-5-yl)oxy)pyridin-4-yl)methyl)piperidin-4-yl)urea]
11 | 8 | 0.01 µM | CN1CCN(c2ncc(Oc3cc(CN4CCO[C@H](CO)CC4)cc(-c4cc(Cl)cc(Cl)c4)n3)cn2)CC1 [Example 330, (S)-(4-((2-(3,5-Dichlorophenyl)-6-((2-(4-methylpiperazin-1-yl)pyrimidin-5-yl)oxy)pyridin-4-yl)methyl)-1,4-oxazepan-7-yl)methanol, 4 hydrochloride]
12 | 7.8 | 0.02 µM | CN1CCN(c2ncc(Oc3cc(CN4CCC(P(C)(C)=O)CC4)cc(-c4cc(Cl)cc(Cl)c4)n3)cn2)CC1 [Example 331, (1-((2-(3,5-Dichlorophenyl)-6-((2-(4-methylpiperazin-1-yl)pyrimidin-5-yl)oxy)pyridin-4-yl)methyl)piperidin-4-yl)dimethylphosphine oxide, 4 hydrochloride]
13 | 8.3 | 0.0501 µM | CN1CCN(c2ncc(Nc3cc(CN4CCC(CC(=O)O)CC4)cc(-c4cc(Cl)cc(Cl)c4)n3)cn2)CC1 [Example 332, 2-(1-((2-(3,5-Dichlorophenyl)-6-((2-(4-methylpiperazin-1-yl)pyrimidin-5-yl)amino)pyridin-4-yl)methyl)piperidin-4-yl)acetic acid, 4 hydrochloride]
14 | 8.7 | 0.0126 µM | Cc1c(CN2CCC(CC(=O)O)CC2)cc(-c2cc(Cl)cc(Cl)c2)nc1Oc1cnc(N2CCN(C)CC2)cn1 [Example 333, 2-(1-((6-(3,5-Dichlorophenyl)-3-methyl-2-((5-(4-methylpiperazin-1-yl)pyrazin-2-yl)oxy)pyridin-4-yl)methyl)piperidin-4-yl)acetic acid]
15 | 9.1 | 0.00398 µM | COC(=O)NCC1CCN(Cc2cc(Oc3cnc(N4CCN5CCC4C5)nc3)nc(-c3cc(Cl)cc(Cl)c3)c2)CC1 (stereo not shown) [Example 336, methyl ((1-((2-((2-(1,4-diazabicyclo[3.2.1]octan-4-yl)pyrimidin-5-yl)oxy)-6-(3,5-dichlorophenyl)pyridin-4-yl)methyl)piperidin-4-yl)methyl)carbamate]
16 | 9 | 0.00794 µM | O=C(O)[C@H]1[C@@H]2CCN(Cc3cc(Oc4cnc(N5CCN6CCC5C6)nc4)nc(-c4cc(Cl)cc(Cl)c4)c3)CC[C@@H]21 (stereo partly drawn) [Example 337, (1R,7S,8r)-4-((2-((2-(1,4-diazabicyclo[3.2.1]octan-4-yl)pyrimidin-5-yl)oxy)-6-(3,5-dichlorophenyl)pyridin-4-yl)methyl)-4-azabicyclo[5.1.0]octane-8-carboxylic acid]
17 | 8 | 0.0126 µM | FC1CCN(Cc2cc(Oc3cnc(N4CCN5CCC4C5)nc3)nc(-c3cc(Cl)cc(Cl)c3)c2)CC1 (stereo not shown) [Example 338, 4-(5-((6-(3,5-dichlorophenyl)-4-((4-fluoropiperidin-1-yl)methyl)pyridin-2-yl)oxy)pyrimidin-2-yl)-1,4-diazabicyclo[3.2.1]octane]
18 | 8.8 | 0.01 µM | CC(CCN1CCN(c2cnc(Oc3cc(CN4CCC(CCO)CC4)cc(-c4cc(Cl)cc(Cl)c4)n3)cn2)CC1)C(=O)O (stereo not shown) [Example 341, 4-(4-(5-((6-(3,5-dichlorophenyl)-4-((4-(2-hydroxyethyl)piperidin-1-yl)methyl)pyridin-2-yl)oxy)pyrazin-2-yl)piperazin-1-yl)-2-methylbutanoic acid]
19 | 8.7 | 0.00501 µM | OCCC1CCN(Cc2cc(Oc3cnc(N4CCNCC4)cn3)nc(-c3cc(Cl)cc(Cl)c3)c2)CC1 [Example 342, 2-(1-((2-(3,5-dichlorophenyl)-6-((5-(piperazin-1-yl)pyrazin-2-yl)oxy)pyridin-4-yl)methyl)piperidin-4-yl)ethanol]

Row | Compound | furin enzyme pIC50 [1] | EC50 [2]
20 | CC(=O)NCC1CCN(Cc2cc(Oc3cnc(N4CC5CCC(C4)N5)nc3)nc(-c3cc(Cl)cc(Cl)c3)c2)CC1 [Example 335, N-((1-((2-((2-(3,8-diazabicyclo[3.2.1]octan-3-yl)pyrimidin-5-yl)oxy)-6-(3,5-dichlorophenyl)pyridin-4-yl)methyl)piperidin-4-yl)methyl)acetamide] | 9.2 | 0.00126 µM
